In experiment [1] the test system is human cancer cells (HeLaS3). Description: Inhibitory effect on growth of human cancer cells (HeLaS3). It counts as cell-based. Particulars: Neutral Red staining, 550 nm. The protocol:
Inhibitory effect on growth of human cancer cells (HeLaS3):
HeLaS, cells were suspended in a medium comprising MEM medium (Nissui Pharmaceutical Co., Ltd.) and 2 mM glutamine (hereinafter referred to as Medium A) to a concentration of 3×10^4 cells/ml. The cell suspension thus prepared was put into wells of a 96-well microtiter plate in an amount of 0.1 ml/well. The cells on the plate were incubated in a CO2 -incubater at 37° C. for 20 hours, and 0.05 ml of a sample containing a test compound and appropriately diluted with Medium A was added to each well. The cells were further incubated in the CO2 -incubater at 37° C. for 72 hours. After the culture supernatant was removed, a medium comprising Medium A and 0.02% Neutral Red was added to the residue in an amount of 0.1 ml/well, followed by incubation at 37° C. for one hour in the CO2 -incubater, whereby the cells were stained. The culture supernatant was removed and the residue was washed once with physiological saline solution. The pigment was extracted with 0.001 N-HCl/30%-ethanol, and the absorbance was determined at 550 nm with a microplate reader. The absorbance determined for intact cells was compared with that for the cells treated with the test compound of a known concentration, and the concentration of the test compound for inhibiting 50% growth of the cells (IC50) was calculated.

Experiment [2] has as its system P388 ascites tumor. Description: Effect on P388 ascites tumor (increased life span). It counts as in vivo. To be noted: intraperitoneal, 24 hours after implantation, male CDF1 mouse. As for the experimental part: Effect on P388 ascites tumor:
P388 tumor cells (10^6 cells) were implanted intraperitoneally into a DBA/2 mouse and the cells were collected from the ascitic fluid of the animal 7 days after the implantation. The cells were ashed once with sterilized physiological saline solution and then suspended in a sterilized physiological saline solution to prepare a cell suspension containing 5×10^6 cells/ml. The suspension (0.2 ml) was intraperitoneally inoculated into a male CDF1 mouse aged 6 weeks. A test compound was dissolved in physiological saline solution and intraperitoneally administered to the animal 24 hours after implantation of the tumor cells. One test group comprised 5 mice. The mean survival time (days) of a test group which received a test compound at a specified concentration was calculated as T from survival days of animals in the group. ON the other hand, the mean survival time (days) of the non-administered group (C) was obtained in the same manner, and the increased life span (ILS %) was calculated as [(T-C)/C]×100 (%).

Where [3] appears, read: Homo sapiens, HeLa S3, 72 hours at 37° C., read-out: IC50.

≈ marks a conversion by molar mass, not a printed value. Read-outs that look alike come from different tables or passages of the source.

A word on the IC50: it is the concentration needed to halve the response being measured. Take `COc1cccc2c1C(=O)c1c(O)c3c(c(O)c1C2=O)C[C@@](O)(C(=O)CO)C[C@@H]3O[C@H]1C[C@H](N)[C@H](O)[C@H](C)O1` [Adriamycin, reference compound]: the IC50 in experiment [1] (setting [3]) lay in the range of 0.009 to 0.05 µg/mL (≈ 0.0166 to 0.092 µM).
As for `CN(C)CCNC(=O)c1nn2c3ccccc3c(=O)c3cccc1c32` [Compound 3, 2-(2-Dimethylaminoethyl)aminocarbonyl-6H-pyrazolo[4,5,1-d,e]acridin-6-one], the IC50 in experiment [1] (setting [3]) was found to be 2.5 µg/mL (≈ 7.48 µM).
On to `COc1cccc2c1c(=O)c1cccc3c(C(=O)NCCN(C)C)nn2c31` [Compound 4, 7-Methoxy-2-(2-dimethylaminoethyl)aminocarbonyl-6H-pyrazolo[4,5,1-d,e]acridin-6-one], for which the IC50 in experiment [1] (setting [3]) came to 2.98 µg/mL (≈ 8.18 µM).
With `O=C(NCCN1CCOCC1)c1nn2c3ccccc3c(=O)c3cccc1c32` [Compound 5, 2-(2-Morpholinoethyl)aminocarbonyl-6H-pyrazolo[4,5,1-d,e]acridin-6-one], the IC50 in experiment [1] (setting [3]) is 7.2 µg/mL (≈ 19.1 µM).
Consider `O=c1c2ccccc2n2nc(CN(CCO)CCO)c3cccc1c32` [Compound 7, 2-Bis(2-hydroxyethyl)aminomethyl-6H-pyrazolo[4,5,1-d,e]acridin-6-one], for which the IC50 in experiment [1] (setting [3]) is 8.89 µg/mL (≈ 26.4 µM).
Same read-out and setting: as for `O=c1c2ccccc2n2nc(CNCCN3CCOCC3)c3cccc1c32` [Compound 8, 2-(2-Morpholinoethyl)aminomethyl-6H-pyrazolo[4,5,1-d,e]acridin-6-one], the figure is 4.9 µg/mL (≈ 13.5 µM).
As for `O=c1c2ccccc2n2nc(CN(CCCl)CCCl)c3cccc1c32` [Compound 9, 2-Bis(2-chloroethyl)aminomethyl-6H-pyrazolo[4,5,1-d,e]acridin-6-one], the IC50 in experiment [1] (72 hours at 37° C.) was 0.92 µg/mL (≈ 2.46 µM). Also, in experiment [2] (dose 18.8 mg/kg), the “ILS (%)” value stood at 28%.
For `Cc1nn2c3ccccc3c(=O)c3c(N)ccc1c32` [Compound 11, 5-Amino-2-methyl-6H-pyrazolo[4,5,1-d,e]acridin-6-one], the concentration for half-maximal inhibition (IC50) in experiment [1] (setting [3]) stood at 2.16 µg/mL (≈ 8.67 µM).
Consider `NCCNCc1nn2c3ccccc3c(=O)c3c(N)ccc1c32` [Compound 15, 5-Amino-2-(2-aminoethyl]aminomethyl-6H-pyrazolo[4,5,1-d,e]acridin-6-one], for which the concentration for half-maximal inhibition (IC50) in experiment [1] (setting [3]) is 0.71 µg/mL (≈ 2.31 µM).
The same measure, in the same setting: as for `Nc1ccc2c(CNCCNCCO)nn3c4ccccc4c(=O)c1c23` [Compound 16, 5-Amino-2-[2-(2-hydroxyethylamino)ethyl]aminomethyl-6H-[4,5,1-d,e]acridin-6-one], the figure is 0.87 µg/mL (≈ 2.48 µM).
As for `Nc1ccc2c(CNCCN3CCOCC3)nn3c4ccccc4c(=O)c1c23` [Compound 17, 5-Amino-2-(2-morpholinoethyl)aminomethyl-6H-[4,5,1-d,e]-acridin-6-one], the IC50 in experiment [1] (setting [3]) came to 1.96 µg/mL (≈ 5.19 µM).
One may read the ILS as how much longer treated animals lived than controls. `NCCNCc1nn2c3ccccc3c(=O)c3c(NCCN)ccc1c32` [Compound 21, 5-(2-Aminoethyl)amino-2-(2-aminoethyl)aminomethyl-6H-pyrazolo[4,5,1-d,e]acridin-6-one] gave an ILS at 37.5 mg/kg in experiment [2] (P388, ip, dose 37.5 mg/kg) of 50%.
In the case of `NCCCNCc1nn2c3ccccc3c(=O)c3c(NCCCN)ccc1c32` [Compound 22, 5-(3-Aminopropyl)amino-2-(3-aminopropyl)aminomethyl-6H-pyrazolo[4,5,1-d,e]acridin-6-one], the IC50 in experiment [1] (setting [3]) is 0.078 µg/mL (≈ 0.206 µM). Moreover, in experiment [2] (P388, ip), the ILS at 25 mg/kg amounted to 52%.
In turn, `CN(C)CCNCc1nn2c3ccccc3c(=O)c3c(NCCN(C)C)ccc1c32` [Compound 23, 5-(2-Dimethylaminoethyl)amino-2-(2-dimethylaminoethyl)aminomethyl-6H-pyrazolo[4,5,1-d,e]acridin-6-one] showed an increase in lifespan (ILS) at 50 mg/kg in experiment [2] (P388, ip) of 46%.
For the compound `COc1cccc2c1c(=O)c1c(NCCN)ccc3c(CNCCN)nn2c31` [Compound 25, 5-(2-Aminoethyl)amino-2-(2-aminoethyl)aminomethyl-7-methoxy-6H-pyrazolo[4,5,1-d,e]acridin-6-one], in experiment [2] (P388, ip), the ILS at 25 mg/kg was 39%.
`CN(C)CCNCc1nn2c3cccc(O)c3c(=O)c3c(NCCN(C)C)ccc1c32` [Compound 30, 5-(2-Dimethylaminoethyl)amino-2-(2-dimethylaminoethyl)aminomethyl-7-hydroxy-6H-pyrazolo[4,5,1-d,e]acridin-6-one] returned an ILS at 50 mg/kg in experiment [2] (P388, ip) of 61%.
For the compound `CNCCCNCc1nn2c3ccccc3c(=O)c3c(NCCCNC)ccc1c32` [Compound 32, 5-(3-Methylaminopropyl)amino-2-(3-methylaminopropyl)aminomethyl-6H-pyrazolo[4,5,1-d,e]acridin-6-one], in experiment [1] (setting [3]), the IC50 worked out at 1.16 µg/mL (≈ 2.85 µM).
Still for that read-out and setting: as for `CNCCNCc1nn2c3ccccc3c(=O)c3c(NCCNC)ccc1c32` [Compound 33, 5-(2-Methylaminoethyl)amino-2-(2-methylaminoethyl)aminomethyl-6H-pyrazolo[4,5,1-d,e]acridin-6-one], the figure is 2.69 µg/mL (≈ 7.11 µM); as for `CCNCCNCc1nn2c3ccccc3c(=O)c3c(NCCNCC)ccc1c32` [Compound 34, 5-(2-Ethylaminoethyl)amino-2-(2-ethylaminoethyl)aminomethyl-6H-pyrazolo[4,5,1-d,e]acridin-6-one], 1.72 µg/mL (≈ 4.23 µM); as for `O=c1c2ccccc2n2nc(CNCCN3CCOCC3)c3ccc(NCCN4CCOCC4)c1c32` [Compound 35, 5-(2-Morpholinoethyl)amino-2-(2-morpholinoethyl)aminomethyl-6H-pyrazolo[4,5,1-d,e]acridin-6-one], 3.37 µg/mL (≈ 6.87 µM).
For `CCN(CC)CCNCc1nn2c3ccccc3c(=O)c3c(NCCN(CC)CC)ccc1c32` [Compound 36, 5-(2-Diethylaminoethyl)amino-2-(2-diethylaminoethyl)aminomethyl-6H-pyrazolo[4,5,1-d,e]acridin-6-one], in experiment [1] (setting [3]), the IC50 is 3.1 µg/mL (≈ 6.7 µM).
For the compound `NCCCCNCc1nn2c3ccccc3c(=O)c3c(NCCCCN)ccc1c32` [Compound 37, 5-(4-Aminobutyl)amino-2-(4-aminobutyl)aminomethyl-6H-pyrazolo[4,5,1-d,e]acridin-6-one], in experiment [1] (setting [3]), the IC50 amounted to 2.11 µg/mL (≈ 5.19 µM).
For `CNCCNc1ccc2c(CN(C)CCN)nn3c4ccccc4c(=O)c1c23` [Compound 38, 2-[N-(2-aminoethyl)-N-methyl]aminomethyl-5-(2-methylaminoethyl)amino-6H-pyrazolo[4,5,1-d,e]acridin-6-one], the IC50 in experiment [1] (setting [3]) turned out to be 2.89 µg/mL (≈ 7.64 µM).
Turning to `CN(C)CCCNCc1nn2c3ccccc3c(=O)c3c(NCCCN(C)C)ccc1c32` [Compound 39, 5-(3-Dimethylaminopropyl)amino-2-(3-dimethylaminopropyl)aminomethyl-6H-pyrazolo[4,5,1-d,e]acridin-6-one], the IC50 in experiment [1] (setting [3]) was 8.33 µg/mL (≈ 19.2 µM).
`CN(C)CCNCc1nn2c3cccc(O)c3c(=O)c3c(NCCNCCO)ccc1c32` [Compound 42]: the IC50 in experiment [1] (setting [3]) was found to be 0.12 µg/mL (≈ 0.274 µM).
In experiment [2] (P388, ip), `NCCNc1ccc2c(CNCCSCCO)nn3c4cccc(O)c4c(=O)c1c23` [Compound 59, 5-(2-Aminoethyl)amino-7-hydroxy-2-[2-(2-hydroxyethylthio)ethyl]aminomethyl-6H-pyrazolo[4,5,1-d,e]acridin-6-one] yielded an ILS at 12.5 mg/kg greater than 134%.
On to `NCCNc1ccc2c(CNCCOCCO)nn3c4cccc(O)c4c(=O)c1c23` [Compound 62, 5-(2-Aminoethyl)amino-7-hydroxy-2-[2-(2-hydroxyethyloxy)ethyl]aminomethyl-6H-pyrazolo[4,5,1-d,e]acridin-6-one], for which the half-inhibitory concentration (IC50) in experiment [1] (setting [3]) was determined as 0.0023 µg/mL (≈ 0.00559 µM).
`O=c1c2c(O)cccc2n2nc(CNCCOCCO)c3ccc(NCCNCCO)c1c32` [Compound 66, 7-Hydroxy-5-[2-(2-hydroxyethylamino)ethyl]amino-2-[2-(2-hydroxyethyloxy)ethyl]aminomethyl-6H-pyrazolo[4,5,1-d,e]acridin-6-one]: in experiment [2] (P388, ip), the ILS at 12.5 mg/kg was greater than 133%.
`O=c1c2c(O)cccc2n2nc(CNCCO)c3ccc(Br)c1c32` [Compound 67, 5-Bromo-7-hydroxy-2-(2-hydroxyethyl)aminomethyl-6H-pyrazolo[4,5,1-d,e]acridin-6-one] came in with an ILS at 75 mg/kg in experiment [2] (P388, ip, dose 75 mg/kg) of 31%.
In experiment [2] (P388, ip), `CN(C)CCCNCc1nn2c3cccc(O)c3c(=O)c3c(NCCCN(C)C)ccc1c32` [Compound 70, 5-(3-Dimethylaminopropyl)amino-2-(3-dimethylaminopropyl)aminomethyl-7-hydroxy-6H-pyrazolo[4,5,1-d,e]acridin-6-one] displayed an ILS at 12.5 mg/kg greater than 112%.
In experiment [2] (P388, ip, dose 4-6 mg/kg), `CO[C@@]12[C@H](COC(N)=O)C3=C(C(=O)C(C)=C(N)C3=O)N1C[C@@H]1N[C@@H]12` [Mitomycin C, reference compound] registered an ILS at 4 mg/kg of 57 to 67%.

Source of the values: patent US5079358A, “6H-pyrazolo-[4,5,1-d,e]acridin-6-one derivatives having anit-tumor activity” (Kyowa Hakko Kogyo Co., Ltd., priority 1988, dated 1992).
